Source: patent US20220041559A1, “BENZO-AND PYRIDO-PYRAZOLES AS PROTEIN KINASE INHIBITORS” (ROTTAPHARM BIOTECH S.R.L., priority 2019, published 2022)

Legend:
[1] = system: U87MG; assay: Cell viability, ViaCount assay, U87MG; format: cell-based, human; conditions: tested cell lines (U87MG, U373)
Protocol: U87MG: a human glioblastoma astrocytoma from ATCC. Grown in DMEM medium supplemented with 10% FBS at 37° C. with CO2.
Cell viability and total cell count was performed with ViaCount Assay on Guava® Systems, which was able to distinguish viable and non-viable cells based on differential permeabilities of two DNA-binding dyes in the Guava ViaCount® Reagent. 2×10^4 cancer cells were plated in 24 well in DMEM 10%. After 72 h cells were treated with the different compounds for 24, 72 h or 7 days, with a medium change and a second treatment with the product on day 4. At the end of the incubation period the analysis was done following the kit instructions.

[2] = molecular target: T1, EGFR (Homo sapiens, UniProt P00533); assay: Inhibition of EGF-induced EGFR (Y1068)-phosphorylation (cell-based assay, U87MG); set-up: endogenous in cells; host or cells: U87MG; conditions: EGF 10 ng/ml, Western blot
T1 sequence (P00533 25-1210): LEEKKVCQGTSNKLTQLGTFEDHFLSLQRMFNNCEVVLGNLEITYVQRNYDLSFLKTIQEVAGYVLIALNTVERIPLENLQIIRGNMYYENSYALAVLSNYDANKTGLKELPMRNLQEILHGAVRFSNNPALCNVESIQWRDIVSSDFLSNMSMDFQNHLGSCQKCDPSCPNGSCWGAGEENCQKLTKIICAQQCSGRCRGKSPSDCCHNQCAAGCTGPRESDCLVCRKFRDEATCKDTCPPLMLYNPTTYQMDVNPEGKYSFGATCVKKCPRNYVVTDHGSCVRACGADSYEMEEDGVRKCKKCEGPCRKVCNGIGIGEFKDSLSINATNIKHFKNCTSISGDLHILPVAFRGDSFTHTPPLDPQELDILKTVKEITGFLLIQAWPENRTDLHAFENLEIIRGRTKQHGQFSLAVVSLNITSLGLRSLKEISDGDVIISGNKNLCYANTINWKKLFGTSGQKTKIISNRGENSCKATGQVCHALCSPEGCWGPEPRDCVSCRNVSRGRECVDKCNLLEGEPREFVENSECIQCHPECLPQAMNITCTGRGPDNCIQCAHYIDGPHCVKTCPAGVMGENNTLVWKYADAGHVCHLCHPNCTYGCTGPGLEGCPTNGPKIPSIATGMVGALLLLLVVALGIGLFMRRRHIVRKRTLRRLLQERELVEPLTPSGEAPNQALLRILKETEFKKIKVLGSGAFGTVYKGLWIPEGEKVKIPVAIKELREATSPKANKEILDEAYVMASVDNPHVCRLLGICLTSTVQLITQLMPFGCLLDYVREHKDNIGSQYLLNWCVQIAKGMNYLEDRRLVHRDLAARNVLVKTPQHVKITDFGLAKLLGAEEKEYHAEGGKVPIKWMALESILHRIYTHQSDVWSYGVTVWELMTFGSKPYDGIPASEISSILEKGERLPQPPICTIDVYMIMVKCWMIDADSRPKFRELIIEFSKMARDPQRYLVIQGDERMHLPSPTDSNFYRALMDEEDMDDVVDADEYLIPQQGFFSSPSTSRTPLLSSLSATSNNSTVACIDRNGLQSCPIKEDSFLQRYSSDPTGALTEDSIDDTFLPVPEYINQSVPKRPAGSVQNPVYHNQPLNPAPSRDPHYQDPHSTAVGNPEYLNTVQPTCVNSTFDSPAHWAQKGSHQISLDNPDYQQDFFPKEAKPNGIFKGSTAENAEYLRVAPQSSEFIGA
Protocol: U87MG cells (Uppsala 87 Malignant Glioma, a human glioblastoma cell line from ATCC) were plated at 3×10^5 cells/well in 12 w microplates and grown adherent in medium DMEM+10% FBS at 37° C. with 5% CO2. After 24 h, medium was removed and starvation was induced overnight in medium DMEM+0.1% FBS (medium starvation). At the end of incubation, treatment of cells was performed by medium replacement and by adding fresh medium containing or not diluent or test compounds (DMSO 0.1% final concentration) diluted in medium starvation. After 1 hour, EGF stimuli (diluted in medium starvation, 10 ng/ml final concentration) was added to each sample, with the exception of basal sample; plate was then incubated for 15 min at 37° C. with 5% CO2. At the end of the incubation, the medium was removed and cellular lysates were obtained by adding M-PER lysis buffer containing 1× Protease/Phosphatase inhibitors cocktail. Then, lysates were transferred into Eppendorf tubes, sonicated and stored at −80° C.
Protein content was measured by Bradford method. Lysates were analyzed by Western blot for EGFR phosphorylation (Tyrosine 1068) and total receptor amount determination. Densitometric analysis of sample lanes were performed by ImageQuant TL software (GE Healthcare Life Sciences). […]

[3] = molecular target: T1, EGFR; assay: ADP-Glo in vitro kinase assay, EGFR kinase inhibition; format: biochemical; set-up: purchased SignalChem
Protocol: The ADP-Glo™ Kinase Assay (Promega), monitoring ADP produced in the kinase reaction, was performed in two steps. In the first one, after the kinase reaction, the ADP-Glo™ Reagent is added to terminate the kinase reaction and deplete the remaining ATP. In the second step, the Kinase Detection Reagent is added to simultaneously convert ADP to ATP (ATPn or newly synthesized ATP) and introduce luciferase and luciferin, allowing the ATPn to be measured (luciferase/luciferin reaction). The amount of light generated correlates with the amount of ATPn (indirectly with the ADP produced in kinase reaction).
Kinase reaction was performed in 10 μl in a white 384-well plate, inhibitor solutions in DMSO/Kinase buffer (40 mM Tris-Cl, 20 mM MgCl2, 0.1 mg/ml BSA, 50 μM DTT, pH 7.5) and EGFR kinase in Kinase buffer (SignalChem, 2.5 ng/μl final concentration in assay) were pre-incubate 15 minutes at room temperature. At the kinase concentration selected a signal-to negative control ratio >10 was calculated, according to supplier indication. In samples representing the Total enzymatic activity (no inhibitor) or the negative control (no enzyme), inhibitor solution was replaced by diluents (1 DMSO in kinase buffer, final concentration) or ultra-pure water, respectively.
The range of inhibitor concentrations was from 10^−11 M up to 3×10^−6 M (final concentration in assay) and each experimental point was performed in duplicate.
To start the reaction, a substrate/ATP mix (ATP 10 μM final concentration, near to ATP Km value) was added to each sample and after 30 minutes incubation at room temperature, ADP-Glo™ Reagent and Kinase Detection Reagent, incubated in sequence according to the respective incubation time and supplier indication, allowed to stop and develop the kinase reaction. The luminescence was measured with a plate-reading luminometer (Envision 2104 Multilabel reader, PerkinElmer). The percentage of inhibition was calculated towards the Total enzymatic activity and the corresponding curves were analyzed by non linear curve fitting (GraphPad software, version 7 for Windows), allowing to calculate the IC50 value±standard error of the estimate.

[4] = molecular target: T2, VEGFR (Homo sapiens, UniProt P35968); assay: Inhibition of VEGF-induced VEGFR (Y1175)-phosphorylation (cell-based assay, HUVEC-C); conditions: VEGF 50 ng/ml, Western blot
T2 construct: endogenous in cells; host or cells: HUVEC-C
T2 sequence (P35968 20-1356): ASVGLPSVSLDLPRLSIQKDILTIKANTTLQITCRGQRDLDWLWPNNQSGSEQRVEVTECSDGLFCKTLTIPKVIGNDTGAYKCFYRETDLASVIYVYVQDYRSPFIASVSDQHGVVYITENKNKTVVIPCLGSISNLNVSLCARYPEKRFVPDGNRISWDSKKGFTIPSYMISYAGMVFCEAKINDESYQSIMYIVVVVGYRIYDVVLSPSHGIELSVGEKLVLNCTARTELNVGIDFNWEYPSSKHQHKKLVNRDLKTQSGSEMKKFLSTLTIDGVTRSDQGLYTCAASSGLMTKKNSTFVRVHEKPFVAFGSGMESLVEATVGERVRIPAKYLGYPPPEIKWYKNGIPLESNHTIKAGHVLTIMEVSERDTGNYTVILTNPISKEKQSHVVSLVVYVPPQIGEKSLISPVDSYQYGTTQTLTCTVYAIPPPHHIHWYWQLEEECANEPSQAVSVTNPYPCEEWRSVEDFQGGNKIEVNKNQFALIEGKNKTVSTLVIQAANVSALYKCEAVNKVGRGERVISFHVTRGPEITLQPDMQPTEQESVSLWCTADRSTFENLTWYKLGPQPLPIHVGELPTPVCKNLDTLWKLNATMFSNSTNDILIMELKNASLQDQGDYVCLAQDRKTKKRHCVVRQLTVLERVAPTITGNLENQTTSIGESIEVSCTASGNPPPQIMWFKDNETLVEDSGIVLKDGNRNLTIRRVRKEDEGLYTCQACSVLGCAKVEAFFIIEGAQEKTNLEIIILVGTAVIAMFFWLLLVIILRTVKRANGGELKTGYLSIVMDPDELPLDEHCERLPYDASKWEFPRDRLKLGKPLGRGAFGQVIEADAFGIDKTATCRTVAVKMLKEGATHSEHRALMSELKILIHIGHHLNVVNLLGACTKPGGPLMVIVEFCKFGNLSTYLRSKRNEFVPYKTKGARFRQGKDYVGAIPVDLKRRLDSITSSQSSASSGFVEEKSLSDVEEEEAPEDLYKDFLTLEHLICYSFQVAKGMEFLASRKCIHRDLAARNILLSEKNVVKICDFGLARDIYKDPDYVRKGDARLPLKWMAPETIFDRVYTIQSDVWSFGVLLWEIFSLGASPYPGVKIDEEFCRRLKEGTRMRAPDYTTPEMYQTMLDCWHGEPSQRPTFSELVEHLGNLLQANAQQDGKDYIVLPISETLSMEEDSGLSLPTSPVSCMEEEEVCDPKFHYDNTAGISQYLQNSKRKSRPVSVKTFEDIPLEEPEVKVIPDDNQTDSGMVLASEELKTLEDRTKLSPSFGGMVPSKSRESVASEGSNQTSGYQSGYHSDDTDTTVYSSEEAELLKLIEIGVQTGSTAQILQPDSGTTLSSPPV
Protocol: HUVEC-C cells (Human Umbilical Vein Endothelial Cells from ATCC) were plated at 6×10^4 cells/well in 24 w microplates and grown adherent in medium F12K+0.1 mg/ml Heparin+0.05 mg/ml ECGS+10% FBS at 37° C. with 5% CO2. After 24 h, medium was removed and starvation was induced overnight in medium F12K+0.1 mg/ml Heparin+0.5% FBS (medium starvation). At the end of incubation, treatment of cells was performed by medium replacement and by adding fresh medium containing or not diluent or test compounds (DMSO 0.1% final concentration) diluted in medium starvation. After 1 hour, VEGF stimuli (diluted in medium starvation, 50 ng/ml final concentration) was added to each sample, with the exception of basal sample; plate was then incubated for 5 min at 37° C. with 5% CO2. At the end of the incubation, the medium was removed and cellular lysates were obtained by adding M-PER lysis buffer containing 1× Protease/Phosphatase inhibitors cocktail. Then, lysates were transferred into Eppendorf tubes, sonicated and stored at −80° C.
Lysates were analyzed by Western blot for VEGFR phosphorylation (Tyrosine 1175) and total receptor amount determination. Densitometric analysis of sample lanes were performed by ImageQuant TL software (GE Healthcare Life Sciences). […]

CN1CCC(c2ccc(C(=O)Nc3n[nH]c4nc(Nc5ccccc5F)ccc34)cc2)CC1 [Compound 5, N-(6-((2-fluorophenyl)amino)-1H-pyrazolo[3,4-b]pyridin-3-yl)-4-(1-methylpiperidin-4-yl)benzamide]
reduction of cell viability, result in words [1]: active in reducing cell viability | IC50 [2]: 3000 nM | IC50 ([3]; ATP 10 μM, 30 minutes at room temperature): 6 nM | EGFR kinase inhibition, result in words ([3]; text summary of Table 18): more active | Concentration from which maximal inhibitory activity on VEGFR-phosphorylation is shown [4]: ≥ 1 µM
